Data reported in publication PMC6657685, “Cloning, purification, and characterization of GH3 β-glucosidase, MtBgl85, from Microbulbifer thermotolerans DAU221” (PeerJ, 2019).

Target: T1, MtBgl85 (Microbulbifer thermotolerans, UniProt Z9ZKX7DI54)
T1 construct: signal peptide (1-25, predicted) removed; N-terminal His6 tag (pCold I); expressed in E. coli BL21 (DE3); precursor 772 residues, mature 747 residues, 81,924 Da; about 85 kDa on SDS-PAGE; monomer
T1 sequence (Z9ZKX7DI54 26-772): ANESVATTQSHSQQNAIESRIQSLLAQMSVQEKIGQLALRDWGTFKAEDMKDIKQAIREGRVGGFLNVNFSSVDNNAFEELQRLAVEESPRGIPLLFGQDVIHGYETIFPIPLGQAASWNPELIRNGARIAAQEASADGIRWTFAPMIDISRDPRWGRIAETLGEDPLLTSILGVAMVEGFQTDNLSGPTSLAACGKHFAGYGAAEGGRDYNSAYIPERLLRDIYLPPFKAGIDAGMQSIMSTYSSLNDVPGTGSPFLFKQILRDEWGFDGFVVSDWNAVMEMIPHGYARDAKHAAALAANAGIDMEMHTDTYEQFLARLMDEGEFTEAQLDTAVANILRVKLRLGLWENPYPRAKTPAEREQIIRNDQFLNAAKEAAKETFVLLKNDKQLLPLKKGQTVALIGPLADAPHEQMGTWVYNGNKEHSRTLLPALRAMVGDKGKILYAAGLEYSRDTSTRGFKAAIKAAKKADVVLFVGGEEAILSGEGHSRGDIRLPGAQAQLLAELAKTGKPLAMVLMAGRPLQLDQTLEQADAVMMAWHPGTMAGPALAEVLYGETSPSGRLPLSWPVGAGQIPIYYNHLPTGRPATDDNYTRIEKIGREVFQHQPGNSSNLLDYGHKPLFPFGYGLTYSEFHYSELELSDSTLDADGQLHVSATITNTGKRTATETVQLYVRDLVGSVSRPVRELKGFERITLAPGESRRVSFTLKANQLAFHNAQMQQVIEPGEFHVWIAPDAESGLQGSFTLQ
Test: residual activity with pNPβG
Assay type: biochemical
Conditions: read-out: % residual activity at 10 mM

`OC[C@H]1OC(O)[C@H](O)[C@@H](O)[C@@H]1O` (stereo partly shown) [glucose] showed a remaining activity at 10000 µM of 59%.
